The values below come from patent US20260327243A1, “SPIRO-HETEROCYCLIC INHIBITORS OF KRAS G12C MUTANT PROTEINS AND USES THEREOF” (AMGEN INC., priority 2023, published 2026).

The test deals with KRAS^G12C (Homo sapiens, UniProt P01116, C118A/G12C). In words: Coupled Nucleotide Exchange Assay. It is filed as biochemical. To be noted: GDP-bound KRAS (aa 1-169) G12C/C118A; 2 h compound pre-incubation; SOS-mediated exchange, 30 min; cRAF binding (AlphaLISA). The protocol: The KRAS^G12C coupled nucleotide exchange assay allows for the screening and profiling of KRAS^G12C antagonists/inhibitors by monitoring the binding of an effector protein (e.g., a Ras binding domain of Raf1, RBD-cRaf) to KRAS^G12C. Purified GDP-bound KRAS protein (aa 1-169), containing both G12C and C118A amino acid substitutions and an N-terminal His-tag, was pre-incubated in assay buffer (25 mM HEPES pH 7.4, 10 mM MgCl2, 0.01% Triton X-100, either with or without 0.1% BSA) with serially diluted compound for 2 h. For all subsequent steps, BSA was omitted and DTT was added to the reaction buffer at a final concentration of 1 mM. Following compound pre-incubation, purified SOS protein (aa 564-1049) and GTP (Roche 10106399001) were added to the assay wells and incubated for an additional 30 min. To determine the extent of inhibition of SOS-mediated nucleotide exchange, purified GST-tagged cRAF (aa 1-149), nickel chelate AlphaLISA acceptor beads (PerkinElmer AL108R), and AlphaScreen glutathione donor beads (PerkinElmer 6765302) were added to the assay wells and incubated for 5-30 min. The assay plates were then read on a plate reader measuring luminescence signal. Signal intensity of compound-containing wells were normalized to DMSO control, and data were analyzed using a 4-parameter logistic model to calculate IC50 values.
KRAS^G12C, sequence (P01116 1-169 isoform P01116-2 G12C/C118A): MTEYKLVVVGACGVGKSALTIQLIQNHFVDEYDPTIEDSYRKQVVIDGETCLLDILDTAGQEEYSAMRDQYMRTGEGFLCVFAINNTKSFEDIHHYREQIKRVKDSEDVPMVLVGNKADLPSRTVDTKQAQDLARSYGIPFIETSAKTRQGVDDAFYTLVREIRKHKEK
Turning to `C=CC(=O)N1CCN([C@@H]2CN(c3cc(N4CCC5(CC4)COc4nccc(C)c45)nc(C(F)(F)F)n3)[C@@H]2C)CC1` [Compound 3-092, 1-(4-((2R,3R)-2-methyl-1-(6-(4-methyl-1′H-spiro[furo[2,3-b]pyridine-3,4′-piperidin]-1′-yl)-2-(trifluoromethyl)-4-pyrimidinyl)-3-azetidinyl)-1-piperazinyl)-2-propen-1-one], the IC50 – broadly, the concentration at which inhibition is half-maximal – is 2400 nM. This lies in the single-digit micromolar range.
Then `C=CC(=O)N1CCN(C2CN(c3cc(N4CCC5(CC4)OCCC5=O)nc(C(F)(F)F)c3C#N)C2)CC1` [Compound 3-031, 4-(3-(4-acryloylpiperazin-1-yl)azetidin-1-yl)-6-(4-oxo-1-oxa-8-azaspiro[4.5]decan-8-yl)-2-(trifluoromethyl)nicotinonitrile], with 9250 nM; and `C=CC(=O)N1CCN(C2CN(c3cc(N4CCC5(CC4)OC(=O)NC54CCC4)nc(C(F)(F)F)c3C#N)C2)CC1` [Compound 3-034, 4-(3-(4-acryloylpiperazin-1-yl)azetidin-1-yl)-6-(12-oxo-11-oxa-8,13-diazadispiro[3.0.55.34]tridecan-8-yl)-2-(trifluoromethyl)nicotinonitrile], with 2450 nM; and `C=CC(=O)N1CCN([C@@H]2CN(c3cc(N4CCC5(CC4)CC5CN4CCCC4)nc(C(F)(F)F)n3)[C@@H]2C)CC1` (stereo partly drawn) [Compound 3-023, 1-(4-((2R,3R)-2-methyl-1-(6-(1-(pyrrolidin-1-ylmethyl)-6-azaspiro[2.5]octan-6-yl)-2-(trifluoromethyl)pyrimidin-4-yl)azetidin-3-yl)piperazin-1-yl)prop-2-en-1-one], with 7270 nM.
Next, `C=CC(=O)N1CCN(C2CN(c3cc(N4CCC5(CCCO5)[C@@H](CO)C4)nc(C(F)(F)F)c3C#N)C2)CC1` (stereo partly drawn) [Compound 3-062-2, 4-(3-(4-acryloylpiperazin-1-yl)azetidin-1-yl)-6-((6R)-6-(hydroxymethyl)-1-oxa-8-azaspiro[4.5]decan-8-yl)-2-(trifluoromethyl)nicotinonitrile]: 6200 nM; `C=CC(=O)N1CCN(C2CN(c3cc(N4CCC5(CC4)COc4ccccc45)nc(C(F)(F)F)n3)C2)CC1` [Compound 3-018, 1-(4-(1-(6-(2H-spiro[benzofuran-3,4′-piperidin]-1′-yl)-2-(trifluoro-methyl)pyrimidin-4-yl)azetidin-3-yl)piperazin-1-yl)prop-2-en-1-one]: 1980 nM; `C=CC(=O)N1CCN(C2CN(c3cc(N4CCC5(CC4)OCCc4ncsc45)nc(C(F)F)c3C)C2)CC1` [Compound 3-069, 1-(4-(1-(2-(Difluoromethyl)-6-(6′,7′-dihydrospiro[piperidine-4,4′-pyrano[4,3-d]thiazol]-1-yl)-3-methylpyridin-4-yl)azetidin-3-yl)piperazin-1-yl) prop-2-en-1-one]: 830 nM.
The compound `C=CC(=O)N1CCN(C2CN(c3cc(N4CCC5(CC4)c4ccccc4C(=O)N5C)nc(C(F)(F)F)n3)C2)CC1` [Compound 3-013] yielded an IC50 of 5640 nM.
`C=CC(=O)N1CCN([C@@H]2CN(c3cc(N4CCC5(C[C@@H]4C)OCC=C5C)nc(C(F)F)n3)[C@@H]2C)CC1` (stereo partly drawn) [Compound 3-007, 1-(4-((2R,3R)-1-(2-(difluorometh-yl)-6-(4.7-dimethyl-1-oxa-8-aza-spiro[4.5]dec-3-en-8-yl)pyrimidin-4-yl)-2-methyl-azetidin-3-yl)piper-azin-1-yl)-prop-2-en-1-one] had a half-inhibitory concentration (IC50) of 6570 nM.
Then `C=CC(=O)N1CCN([C@@H]2CN(c3cc(N4CCC5(C=CCO5)CC4)nc(C(F)(F)F)c3C#N)[C@@H]2C)CC1` [Compound 3-010, 4-((2R,3R)-3-(4-acryloylpiperazin-1-yl)-2-methylazetidin-1-yl)-6-(1-oxa-8-azaspiro[4.5]dec-3-en-8-yl)-2-(trifluoromethyl)nicotinonitrile], with 660 nM; and `C=CC(=O)N1CCN(C2CN(c3cc(N4CCC5(CC4)CC(C)(O)CO5)nc(C(F)(F)F)c3C#N)C2)CC1` (stereo not shown) [Compound 3-029, 4-(3-(4-acryloylpiperazin-1-yl)azetidin-1-yl)-6-(3-hydroxy-3-methyl-1-oxa-8-azaspiro[4.5]decan-8-yl)-2-(trifluoromethyl)nicotinonitrile], with 8680 nM.
On to `C=CC(=O)N1CCN(C2CN(c3cc(N4CCC5(CC4)CC(C)(C)CO5)nc(C(F)(F)F)c3C#N)C2)CC1` [Compound 3-045, 4-(3-(4-acryloylpiperazin-1-yl)azetidin-1-yl)-6-(3,3-dimethyl-1-oxa-8-azaspiro[4.5]decan-8-yl)-2-(trifluoromethyl)nicotinonitrile], for which the IC50 is 6350 nM.
Next, `C=CC(=O)N1CCN(C2(C)CN(c3cc(N4CCC5(CC4)OCc4ccccc45)nc(C(F)(F)F)n3)C2)CC1` [Compound 3-027, 1-(4-(1-(6-(3H-spiro[isobenzofuran-1.4′-piperidin]-1′-yl)-2-(trifluoromethyl)pyrimidin-4-yl)-3-methylazetidin-3-yl)piperazin-1-yl)prop-2-en-1-one]: 6150 nM; `C=CC(=O)N1CCN(C2CN(c3cc(N4CCC5(CC4)OC(C)C=C5Cl)nc(C(F)(F)F)c3C#N)C2)CC1` (stereo not shown) [Compound 3-065, 4-(3-(4-Acryloylpiperazin-1-yl)azetidin-1-yl)-6-(4-chloro-2-methyl-1-oxa-8-azaspiro[4.5]dec-3-en-8-yl)-2-(trifluoromethyl)nicotinonitrile]: 752 nM; `C=CC(=O)N1CCN(C2CN(c3cc(N4CCC5(CC4)OCC4CC45)nc(C(F)(F)F)c3C#N)C2)CC1` (stereo not shown) [Compound 3-042, 4-(3-(4-acryloylpiperazin-1-yl)azetidin-1-yl)-6-(3-oxaspiro[bicyclo[3.1.0]hexane-2,4′-piperidin]-1′-yl)-2-(trifluoromethyl)nicotinonitrile]: 5120 nM.
In turn, `C=CC(=O)N1CCN(C2CN(c3cc(N4CCC5(CCc6ccccc65)CC4)nc(C(F)(F)F)n3)C2)CC1` [Compound 3-063, 1-(4-(1-(6-(2,3-Dihydrospiro[indene-1,4′-piperidin]-1′-yl)-2-(trifluoromethyl)pyrimidin-4-yl)azetidin-3-yl)piperazin-1-yl) prop-2-en-1-one] registered a 50% inhibitory concentration (IC50) of 8240 nM.
`C=CC(=O)N1CCN([C@@H]2CN(c3cc(N4CCC5(CC4)C(C)=CCN5C)nc(C(F)(F)F)n3)[C@@H]2C)CC1` [Compound 3-055, 1-(4-((2R,3R)-1-(6-(1,4-Dimethyl-1,8-diazaspiro[4.5]dec-3-en-8-yl)-2-(trifluoromethyl)pyrimidin-4-yl)-2-methylazetidin-3-yl)piperazin-1-yl)prop-2-en1-one]: the IC50 is 1320 nM.
On to `C=CC(=O)N1CCN([C@@H]2CN(c3cc(N4C5CCC4CC4(CCCO4)C5)nc(C(F)(F)F)n3)[C@@H]2C)CC1` (stereo partly drawn) [Compound 3-026, 1-(4-((2R,3R)-1-(6-(dihydro-3′H-8-azaspiro[bicyclo[3.2.1]octane-3,2′-furan]-8-yl)-2-(trifluoromethyl)pyrimidin-4-yl)-2-methylazetidin-3-yl)piperazin-1-yl)prop-2-en-1-one], for which the IC50 came out at 1950 nM. The IC50 values of the last two compounds are within 1.5-fold of each other.
Then `C=CC(=O)N1CCN(C2CN(c3cc(N4CCC5(CC4)OC(C)(C)c4ccccc45)nc(C(F)(F)F)c3C#N)C2)CC1` [Compound 3-040, 4-(3-(4-acryloylpiperazin-1-yl)azetidin-1-yl)-6-(3,3-dimethyl-3H-spiro[isobenzofuran-1,4′-piperidin]-1′-yl)-2-(trifluoromethyl)nicotinonitrile], with 2840 nM; and `C=CC(=O)N1CCN(C2CN(c3cc(N4CCC5(C=CCO5)CC4)nc(C(F)F)c3C)C2)CC1` [Compound 3-070, 1-(4-(1-(2-(difluoromethyl)-3-methyl-6-(1-oxa-8-azaspiro[4.5]dec-3-en-8-yl)pyridin-4-yl)azetidin-3-yl)piperazin-1-yl)prop-2-en-1-one], with 1400 nM; and `C=CC(=O)N1CCN(C2CN(c3cc(N4CCC5(C=C[C@H](C)O5)CC4)nc(C(F)(F)F)c3C#N)C2)CC1` [Compound 3-068-2, (S)-4-(3-(4-acryloylpiperazin-1-yl)azetidin-1-yl)-6-(2-methyl-1-oxa-8-azaspiro[4.5]dec-3-en-8-yl)-2-(trifluoromethyl)nicotinonitrile], with 1540 nM.
Next, `C=CC(=O)N1CCN(C2CN(c3cc(N4CCC5(CCCCO5)CC4)nc(C(F)(F)F)c3C#N)C2)CC1` [Compound 3-035, 4-(3-(4-acryloylpiperazin-1-yl)azetidin-1-yl)-6-(1-oxa-9-azaspiro[5.5]undecan-9-yl)-2-(trifluoromethyl)nicotinonitrile]: 3580 nM; `C=CC(=O)N1CCN([C@@H]2CN(c3cc(N4CCC5(CC4)OCC=C5C)nc(C(F)F)n3)[C@@H]2C)CC1` [Compound 3-050, 1-(4-((2R,3R)-1-(2-(Difluoromethyl)-6-(4-methyl1-oxa-8-azaspiro[4.5]dec3-en-8-yl)pyrimidin-4-yl)-2-methylazetidin-3-yl)piperazin-1-yl)prop2-en-1-one]: 825 nM; `C=CC(=O)N1CCN([C@@H]2CN(c3cc(N4CCC5(CC4)OCc4nccc(C)c45)nc(C(F)F)n3)[C@@H]2C)CC1` [Compound 3-080]: 353 nM.
`C=CC(=O)N1CCN(C2CN(c3cc(N4CCC5(CCCO5)[C@H](CO)C4)nc(C(F)(F)F)c3C#N)C2)CC1` (single isomer, unassigned) [Compound 3-062-1] displayed a half-inhibitory concentration (IC50) of 4660 nM.
